Measurements as given in patent US10682366B2, “Method for enhancing immunity using ginsenoside F1 as an active ingredient” (INTELLIGENT SYNTHETIC BIOLOGY CENTER, priority 2016, dated 2020).

Experiments:
[1] = test system: natural killer cells co-cultured with K562 cell or 721.221 cell; test: Cell-killing activity of natural killer cells (cytolysis of europium-labeled target cells); assay type: cell-based, human; conditions: pretreated NK cells; NK:target ratio 5:1, 10:1, 20:1, 40:1; K562 or 721.221; compared to DMSO-treated group
Procedure: In order to examine whether ginsenoside F1 increases cell-killing activity of natural killer cells, cytolysis of target cells was measured.
(§1) In detail, peripheral blood mononuclear cells (PBMCs) separated from the blood and purified natural killer cells were pretreated with ginsenoside F1 or Rg3, and then co-cultured with K562 cell or 721.221 cell which is an europium-labeled target cells. The natural killer cell and the target cell were mixed at a ratio of 5:1, 10:1, 20:1, and 40:1, followed by culture. Meanwhile, intensity of fluorescence emitted from the target cell is proportional to cell-killing activity of natural killer cell. Therefore, a culture medium was separated by centrifugation, and then fluorescence emitted by cell lysis of the target cell was measured by using a microplate reader.

[2] = test system: natural killer cell-sensitive RMA-S (MHC class I-) cells; test: In vivo natural killer cell-based selective reduction of RMA-S (RMA-S/RMA target cell system); conditions: mice pretreated at 25 mg/kg; for removability (selective reduction rate of RMA-S): RMA-S/RMA mixture intraperitoneal, 8 hours later, FACS
Procedure: To evaluate effectiveness of in vivo cell-killing activity of ginsenoside F1, natural killer cell-sensitive RMA-S (MHC class I^−) and natural killer cell-resistant RMA (MHC class I^+) target cell systems were used.
In detail, mice were pretreated with ginsenoside F1 at a dose of 25 mg/kg. A mixture of RMA-S/RMA cells, each cell labeled with different fluorescence intensity, was administered into the mice via intraperitoneal injection. 8 hours later, a selective reduction rate of RMA-S by natural killer cells was analyzed by FACS.

[3] = test system: peripheral blood mononuclear cells (PBMCs) and natural killer cells; test: Degranulation activity of innate immune cells (CD107a expression by FACS); assay type: cell-based, human; conditions: cells pretreated with ginsenoside, co-cultured with K562 or 721.221 target cell; compared to DMSO (vehicle)-treated group
Procedure: Effect of ginsenoside F1 on degranulation activity of innate immune cells was measured by fluorescence activated cell sorter (FACS).
In detail, peripheral blood mononuclear cells (PBMCs) separated from the blood and purified natural killer cells were pretreated with ginsenoside, and then co-cultured with K562 cell or 721.221 cell which is a target cell of the above cells, respectively. Thereafter, the surfaces of the peripheral blood mononuclear cells and the natural killer cells were stained with fluorochrome-conjugated anti-CD3, anti-CD56, and anti-CD107a antibodies. Meanwhile, degranulation activity of peripheral blood mononuclear cells or natural killer cells is proportional to CD107a expression on cell surface, as shown in FIG. 1. Therefore, CD107a expression levels of the peripheral blood mononuclear cells and the natural killer cells were measured by a FACS machine.

[4] = test system: primary natural killer cells; test: Analysis of cell-killing factors (perforin, granzyme B) by quantitative RT-PCR; assay type: cell-based, human; conditions: 12 hours after treatment
Procedure: To investigate a cell-killing activation mechanism of natural killer cells by ginsenoside F1, primary natural killer cells purified by the method of Example 3-1 were treated with ginsenoside F1 or Rg1. 12 hours later, total RNA was isolated, and then expressions of perforin and granzyme B which are representative cell-killing factors of natural killer cells were analyzed by quantitative RT-PCR.
In detail, total RNA was isolated from natural killer cells using a TRIzol reagent, and cDNA was synthesized using primers of unknown sequences, which were manufactured by Toyobo, and reverse transcriptase. Thereafter, quantitative RT-PCR was performed using primers of the following Table 1 and SYBR PCR Master Mix (Toyobo).
PCR conditions are the same as in the following Table 2.

[5] = test system: primary natural killer cells; test: Cell-killing activity of primary natural killer cells (cytolysis of target cells); assay type: cell-based, human; conditions: for cytolysis of target cells: compared to DMSO-treated group
Description: as §1
Blood (50 ml) of a healthy donor was collected in a vacutainer cell preparation tube (BD Biosciences) containing sodium heparin. Thereafter, the blood was percoll-gradient centrifuged to recover a buffy coat which is a white thin layer consisted of platelets and white blood cells. Peripheral blood mononuclear cells obtained by washing this buffy coat with PBS were separated by using a human NK cell negative selection kit (Miltenyl Biotech). Part of the separated natural killer cells and a FACS buffer were mixed, and then purity of natural killer cells (CD3^−/CD16^+) and the number and ratio of CD56^dim/CD16^+, CD56^bright/CD16^−, and CD56^bright/CD16^+ were measured by using a FACS machine and fluorochrome-conjugated anti-CD3, anti-CD56, and […] antibodies. Natural killer cells with purity of 95% or more were used in experiments.
The primary natural killer cells separated by the method of Example 3-1 were used to examine whether ginsenoside F1 increases cell-killing activity of primary natural killer cells, in the same manner as in Example 2.

[6] = test system: primary natural killer cells; test: Calcium flux assay by confocal live cell imaging; assay type: cell-based, human; conditions: activated with NKG2D antibody and 2B4 antibody; compared to ginsenoside Rg1
Procedure: To investigate a natural killer cell-based immune enhancement mechanism of ginsenoside F1 calcium flux assay of individual cells was performed by live cell imaging using confocal microscopy.
In detail, primary natural killer cells were purified (>97%) by the method of Example 3-1, and then treated with ginsenoside F1 or Rg1. For 30 seconds, a basal calcium level was measured, and then natural killer cells were activated using a combination of NKG2D antibody and 2B4 antibody, followed by calcium flux assay by confocal live cell imaging.

| SMILES | cytolysis of target cells [1] | RMA-S reduction effect relative to non-treated group ([2]; 8 hours) [times] | removability (selective reduction rate of RMA-S) [2] | CD107a expression [3] | expression level of granzyme B compared to ginsenoside Rg1-treated group [4] | expression level of perforin compared to ginsenoside Rg1-treated group [4] | expression level of granzyme B ([4]; compared to non-treated group) | expression level of perforin ([4]; compared to non-treated group) | cytolysis of target cells compared to the ginsenoside Rg3 and Rg1-treated group [5] | cytolysis of target cells [5] | calcium flux of natural killer cells [6] |
| --- | --- | --- | --- | --- | --- | --- | --- | --- | --- | --- | --- |
| CC(C)=CCC[C@](C)(O[C@@H]1O[C@H](CO)[C@@H](O)[C@H](O)[C@H]1O)[C@H]1CC[C@]2(C)[C@@H]1[C@H](O)C[C@@H]1[C@@]3(C)CC[C@H](O)C(C)(C)[C@@H]3[C@@H](O)C[C@]12C [ginsenoside F1] | high cytolysis of target cells | 2 | ≥ 70% | highest CD107a expression | high expression level of granzyme B | high expression level of perforin | about 1.5 times | about 2 times | remarkably excellent cytolysis | high cytolysis of target cells | more effectively promotes calcium flux |
| CC(C)=CCC[C@](C)(O[C@@H]1O[C@H](CO)[C@@H](O)[C@H](O)[C@H]1O)[C@H]1CC[C@]2(C)[C@@H]1[C@H](O)C[C@@H]1[C@@]3(C)CC[C@H](O)C(C)(C)[C@@H]3[C@@H](O[C@@H]3O[C@H](CO)[C@@H](O)[C@H](O)[C@H]3O)C[C@]12C [ginsenoside Rg1, reference compound] | – | – | about 52% | – | – | – | – | – | – | high cytolysis of target cells | – |
| CC(C)=CCC[C@](C)(O)[C@H]1CC[C@]2(C)[C@@H]1[C@H](O)C[C@@H]1[C@@]3(C)CC[C@H](O[C@@H]4O[C@H](CO)[C@@H](O)[C@H](O)[C@H]4O[C@@H]4O[C@H](CO)[C@@H](O)[C@H](O)[C@H]4O)C(C)(C)[C@@H]3CC[C@]12C [ginsenoside Rg3, reference compound] | high cytolysis of target cells | – | – | increased | – | – | – | – | – | high cytolysis of target cells | – |
